Measurements: patent US9593146B2, “CD44v6-derived peptides for treating metastasizing cancer” (AMCURE GMBH, priority 2012, dated 2017)

Columns and labels:
[1] = test system: BSp73ASs6 cells; experiment: Staining of fixed BSp73ASs6 cells with DY681-labeled peptides; type: cell-based, rat; settings: DY681-labeled peptide for one hour
Experimental: (§1) ASs6 or L3.6pl cells were seeded at 5,000 cells/well of a Lab-TekR Chamber Slide™ (Nunc, Napierville, Ill., USA). On the following day the cells were washed with cold PBS and fixed with 4% Formalin for 30 min at RT. Unspecific binding was blocked with 1% BSA in PBS for 1 hour at RT. The cells were incubated for 1 hour with the DY681-labeled peptides. After three washing steps with PBS the cover slips were mounted with Fluorescence Mounting Medium (Dako, Glostrup, Denmark) and the immunofluorescence was measured by a laser scanning confocal microscope Leica TCS2 SP2 (Exton, Pa., USA) and processed using Leica confocal software. A 20× objective was used for imaging.

[2] = test system: BSp73ASs6 tumors; settings: rat
Experimental: In vivo imaging of the subcutaneously grown BSp73ASs6 tumors in BD10 or BDX rats was performed using the near infrared fluorescence (NIRF)-imaging system Optix MX2 (ART, Montreal, Canada) as described earlier (Napp et al., Int J Cancer (2010), 127:1958-1974). To avoid autofluorescence of fur, rats were shaved around the tumor prior to imaging. Subsequently, animals were anesthetized using 2% isoflurane and gently fixed on the devices' heated plate for the entire time of data acquisition. To reduce fluorescence background, rats were fed with chlorophyll-reduced food (Provimi Kliba AG, Kaiseraugst, Switzerland) for one week prior NIRF imaging. All in vivo analyses were preceded by native scans of animals without any injection of the fluorescent probe. […] The rat 11mer had the sequence [sequence] (SEQ ID No.: 12), the mouse 11mer had the sequence [sequence] (SEQ ID No.: 13) and the human 11mer had the sequence [sequence] (SEQ ID No.: 14). All peptides were labeled with the fluorescent dye DY681. Data were acquired at the indicated time after injection of the peptides. For ex vivo monitoring animals were sacrificed after 24 hrs after peptide injection and tumor and organs of interest were scanned ex vivo using Optix MX2.
DY681 fluorescence was measured using excitation at 670 nm in combination with a 700 nm long-pass emission filter. […] Data sets were analyzed with OptiView (ART).

[3] = test system: Met and ERK; experiment: HGF induced activation of Met and Erk in BSp73ASs6 cells (Western blot); type: cell-based, rat; settings: BSp73ASs6 cells induced with HGF in the presence of the labeled peptide (FIG. 3A right)
Experimental: (§2) Serum-starved cells (24 hours) were induced with the growth factor HGF (10 ng/mL) at 37° C. for 5 minutes. Where indicated, the cells were treated with peptides (100 ng/ml) prior to induction at 37° C. for 10 minutes (100 ng/mL CD44v6 peptide or control peptide). Following the induction with HGF, cells were washed with ice-cold phosphate-buffered saline (PBS). To detect activated Met and Erk, cells were lysed in sodium dodecyl sulfate (SDS)-sample buffer containing 100 mM dithiothreitol (DTT), boiled and subjected to western blot analysis using antibodies against phospho-Met and ERK. The loading controls were performed on the same blot after stripping (62.5 mM Tris, pH 6.8, 2% SDS, 0.8% DTT) by probing with the Met respectively ERK antibody. Blots were stained using the enhanced chemiluminescence system (Thermo Fisher Scientific, Schwerte, Germany). Bands in western blot analysis were quantified with the program Image J (National Institutes of Health).
Rat pancreatic cancer cells BSp73ASs6 (also designated Ass6) were incubated for 10 min at 37° C. with either ctrl-peptides (SEQ ID No.: 15), non-pegylated v6-peptides (SEQ ID No.: 11) and increasing concentrations of the pegylated peptides, namely PEG-rat control peptide and PEG-rat CD44v6 peptide, before induction with HGF (10 ng/ml; 5 min at 37° C.).
Activation of ERK and Met was determined by standard SDS and Western Blotting techniques using a phospho-Met and phospho-Erk specific antibody (phospho-Met clone D16 cell signaling, phospho-Erk p42/44 cell signaling)
ASs6 cells, serum starved for 24 h, were induced with HGF (10 ng/ml) at 37° C. for 5 min. Where indicated, the cells were treated with PEGylated or non-PEGylated peptides before induction at 37° C. for 10 min (150 nM). Cells were washed with phosphate-buffered saline (PBS) and lysed in boiling sodium dodecyl sulfate (SDS)-sample buffer containing 100 mM dithiothreitol (DTT). Subsequently, lysates were subjected to Western blot analysis using antibodies against phosphorylated Mek and Erk (Cell signaling). The Mek and Erk loading control were performed on the same blot, stripped (62.5 mM Tris pH 6.8, 2% SDS, 0.8% DTT) and probed with the Mek and Erk antibodies. Blots were stained using the enhanced chemiluminescence system (Thermo Fisher Scientific).

[4] = test system: L3.6pl tumors; experiment: In vivo / ex vivo imaging (Pearl Imager) of mice with L3.6pl tumors; settings: for fluorescence / accumulation in the orthotopic L3.6pl tumor in vivo: 20 μg i.v., 24 h after injection
Experimental: In vivo imaging of the mice with the L3.6pl tumors was performed using the Pearl™ Imager (LI-COR Biosciences, Bad Homburg, Germany). The system uses two lasers (685 and 785 nm) for excitation and a charge-coupled device detector for signal detection. The laser excitation enables a deep tissue penetration. With the near-infrared detection a high sensitivity due to the reduced tissue auto-fluorescence is achieved. In order to standardize the images we made use of the Pearl Cam Software. The animals were fed with chlorophyll-reduced food to reduce the fluorescence background one week before imaging (Regime 210, safe-diets, Augy, France). Prior to imaging the mice were anesthetized with 2.0% isoflurane. Animals were placed on the heated plate of the imager and continuous delivery of isoflurane was achieved through a nose cone in the imaging drawer. Images were captured at white light, 700 and 800 nm. Animals were imaged prior to i.v. peptide injection and 24 h after injection with either DY681-labeled human v6 peptide or DY681-labeled rat v6 peptide as control. Immediately after each imaging session animals were killed, tumor, liver and spleen isolated and scanned ex vivo at white light, 700 and 800 nm.

[5] = test system: Met; settings: N to A and E to A mutated pentapeptide; cited from earlier work
[6] = test system: Met and ERK; experiment: HGF induced activation of Met and ERK in L3.6pl cells (Western blot); type: cell-based, human; settings: L3.6pl cells induced with HGF (FIG. 5A right)
Experimental: as §2

[7] = test system: L3.6pl cells; experiment: Staining of L3.6pl cells with DY681-labeled peptides; type: cell-based, human; settings: DY681 labeled peptide
Experimental: as §1

Substance	binding to BSp73ASs6 cells in tissue culture [1]	inhibition of Met activation by DY681 labeled peptide [3]	fluorescence / accumulation in the orthotopic L3.6pl tumor in vivo [4]	other results
WFENEWQGKNP [rv6 pep Dy681, rat v6 11mer labeled with DY681]	bound to BSp73ASs6 cells in tissue culture	inhibited Met activation	No fluorescence was detected	fluorescence in excised tumors and lungs ex vivo [2]: could only be detected in tumors and in specific areas of the lungs
A-R-W-H-A (ARWHA) [pentapeptide with N and E mutated to A]	–	–	–	Met activation [5]: capable of abrogating Met activation
WFGNRWHEGYR [DY681 human v6 peptide, human v6 11mer labeled with DY681]	–	–	accumulated specifically in the tumor	inhibition of Met activation by DY681 labeled peptide [6]: inhibited Met activation in L3.6pl cells; binding to L3.6pl cells in cell culture [7]: bound to these cells in cell culture; ex vivo binding to primary tumors, livers ([4]; organs excised 24 h after injection): binding not only to primary tumors but also to areas of the liver
WFQNGWQGKNP [mv6 pep Dy681, mouse v6 11mer labeled with DY681, control, reference compound]	not the DY681-labeled mouse v6 peptide bound to BSp73ASs6 cells	not the mouse peptide inhibited Met activation	–	–
